pIC50: −log10 of the molar value. ≈ marks a conversion by molar mass, not a printed value. Calls of active or inactive are those of the source. The calls are words filed in the database; no cut-off is given here.

The term inhibition denotes the share of the control response that was lost under treatment. The term pIC50 denotes the negative decadic logarithm of the IC50, by convention in mol/L. For orientation: solubility means the dissolved amount per volume that the medium holds. The low end stands for little dissolved substance, the high end for much dissolved substance.

The nature of series [1]: Cytotoxicity against mouse J774A1 cells at 64 uM after 2 hrs by MTS assay relative to control. The class given is cell-based. The following applies: j774.a1, 2 h. A general note: Tetrazolium dyes change colour on reduction, which living cells bring about.
In a further series the test system is HeLa. As to the kind of experiment: Cytotoxicity against human HeLa cells at 64 uM after 2 hrs by MTS assay relative to control. The class given is cell-based.
Series [2] deals with Mycobacterium tuberculosis. As to the kind of experiment: microbe, parasite or virus in culture. The following applies: H37Rv, 96 h.
Series [3] deals with T1, Inorganic pyrophosphatase (Mycobacterium tuberculosis (strain ATCC 25618 / H37Rv)) (UniProt P9WI55).
T1 sequence (whole entry): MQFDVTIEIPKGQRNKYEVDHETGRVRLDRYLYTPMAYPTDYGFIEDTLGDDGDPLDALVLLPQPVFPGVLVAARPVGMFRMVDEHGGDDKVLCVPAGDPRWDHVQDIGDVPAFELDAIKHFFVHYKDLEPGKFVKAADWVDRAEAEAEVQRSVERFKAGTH
As to the kind of experiment: Inhibition of Mycobacterium tuberculosis PPase at 100 uM using inorganic pyrophosphate as substrate preincubated for 2 mins followed by substrate addition measured after 6 mins by malachite green assay.

The target in series [4] is T2, Inorganic pyrophosphatase (Mycobacterium tuberculosis (strain ATCC 25618 / H37Rv), UniProt P9WI55).
T2 sequence (P9WI55 whole entry): T1 sequence (whole entry)
As to the kind of experiment: Inhibition of Mycobacterium tuberculosis PPase using inorganic pyrophosphate as substrate preincubated for 2 mins followed by substrate addition measured after 6 mins by malachite green assay.

Series [5] in a line: Solubility of the compound in DMSO. In kind it is physicochemical.
The test system of the next series is Bacillus anthracis. As to the kind of experiment: microbe, parasite or virus in culture. The following applies: Sterne 34F2, 20 h.
In another series the test system is Bacillus subtilis. As to the kind of experiment: microbe, parasite or virus in culture. The following applies: 20 h.
The next series has as its system Staphylococcus aureus. As to the kind of experiment: microbe, parasite or virus in culture. The following applies: 20 h.

Turning to `COc1ccc(-c2cnnc(N3CCC(c4cccc(Cl)c4)C3)n2)cc1OC` (stereo not drawn), the Activity result (in [1]; with HeLa) was “Non-toxic” throughout.

Consider `O=[N+]([O-])c1ccc(-c2cnnc(N3CCC(c4cccc(Cl)c4)C3)n2)cc1` (stereo not drawn), for which the MIC in series [2] came out at 31.2 µM (≈ 11.9 µg/mL). In series [3], the inhibition was determined as 30.3%.

Take `COc1ccc(C2CCN(c3nncc(-c4ccc(C)o4)n3)C2)cc1O` (stereo not drawn): the MIC in series [2] was over 128 µM. The inhibition in series [3] came to 5%.

Take `Cc1ccc(-c2cnnc(N3CCC(n4cnc5c(N)ncnc54)C3)n2)o1` (stereo not drawn): the MIC in [2] is over 128 µM. Further, the inhibition entry in [3] was “inactive”.

In series [2], `FC(F)(F)c1ccccc1-c1ccc(-c2cnnc(N3CCC(c4cccc(Cl)c4)C3)n2)o1` (stereo not drawn) displayed an MIC of over 128 µM. In addition, in series [4], the pIC50 is 4.42. This compound returned an inhibition in series [3] of 67.7%.

Turning to `O=[N+]([O-])c1cccc(-c2cnnc(N3CCC(c4cccc(Cl)c4)C3)n2)c1` (stereo not drawn), the MIC in [2] was over 128 µM. Besides, the pIC50 in series [4] was 3.93. The compound further gave an inhibition in [3] of 39.4%.

In series [2], `COC(=O)c1cccc(-c2ccc(-c3cnnc(N4CCC(c5cccc(Cl)c5)C4)n3)o2)c1` (stereo not drawn) yielded an MIC of over 16 µM. The compound also registered a solubility in series [5] of under 100 µM.

In [2], `Cc1ccc(-c2cnnc(N3CCC(c4ccc(O)c(O)c4)C3)n2)o1` (stereo not drawn) yielded an MIC of over 128 µM. Besides, the inhibition result in [3] was “inactive”.

As to `NNC(=O)c1ccncc1` [ISONIAZID], in series [2], the MIC came out at 0.45 µM (≈ 0.0617 µg/mL).

With `Cc1ccc(-c2cnnc(N3CCC(c4cccc(N)c4)C3)n2)o1` (stereo not drawn), in [2], the MIC is 70.1 µM (≈ 22.5 µg/mL). In series [3], this compound displayed an inhibition of 33.4%.

As to `Cc1ccc(-c2cnnc(N3CCC(c4cccc(F)c4)C3)n2)o1` (stereo not drawn), the MIC in series [2] was 38.9 µM (≈ 12.6 µg/mL). This compound also had an inhibition in series [3] of 21.3%.

Consider `Clc1cccc(C2CCN(c3nncc(-c4ccccc4)n3)C2)c1` (stereo not drawn), for which the Activity entry (in [1]; in the series on HeLa) was “Non-toxic” throughout.

In the case of `Cc1ccc(-c2cnnc(N3CCC(c4ccccc4)C3)n2)o1` (stereo not drawn), the MIC in series [2] was 40.5 µM (≈ 12.4 µg/mL). The inhibition in series [3] is 19.7%.

`Cc1ccc(-c2cnnc(N3CCC(c4cccc(C#N)c4)C3)n2)o1` (stereo not drawn) registered an MIC in series [2] of 64.4 µM (≈ 21.3 µg/mL). The compound also showed an inhibition in series [3] of 10.3%.

`Cc1ccc(-c2cnnc(N3CCC(c4cccc(O)c4)C3)n2)o1` (stereo not drawn): the MIC in [2] was 60.3 µM (≈ 19.4 µg/mL); against Bacillus anthracis, 64 µM (≈ 20.6 µg/mL); with Bacillus subtilis it was 128 µM (≈ 41.3 µg/mL); against Staphylococcus aureus, over 50 µM. Also, the MBC with Bacillus anthracis came out at 128 µM (≈ 41.3 µg/mL). In addition, the Activity result (in series [1]; in the series with HeLa) was “Non-toxic” throughout. For the same compound, in series [3], the inhibition result was “inactive”.

In the series with Bacillus anthracis, `CN[C@H](CC(C)C)C(=O)N[C@H]1C(=O)N[C@@H](CC(N)=O)C(=O)N[C@H]2C(=O)N[C@H]3C(=O)N[C@H](C(=O)N[C@H](C(=O)O)c4cc(O)cc(O)c4-c4cc3ccc4O)[C@H](O)c3ccc(c(Cl)c3)Oc3cc2cc(c3O[C@@H]2O[C@H](CO)[C@@H](O)[C@H](O)[C@H]2O[C@H]2C[C@](C)(N)[C@H](O)[C@H](C)O2)Oc2ccc(cc2Cl)[C@H]1O` [VANCOMYCIN] gave an MBC of under 1 µM and an MIC of under 1 µM. In the series on Bacillus subtilis, this compound registered an MBC of under 1 µM and an MIC of under 1 µM.

Regarding `Nc1cccc(-c2cnnc(N3CCC(c4cccc(Cl)c4)C3)n2)c1` (stereo not drawn), the Activity entry (in series [1]; in the series on HeLa) was “Non-toxic” in each case.

Compound `Cc1ccc(-c2cnnc(N3CCC(c4cccc(Cl)c4)C3)n2)o1` (stereo not drawn) came in with an MIC in series [2] of 61 µM (≈ 20.8 µg/mL). The compound also gave a negative-log IC50 (pIC50) in [4] of 3.83. The inhibition in [3] was determined as 45.6%.

`Cc1ccc(-c2cnnc(N3CCC(c4cccc([N+](=O)[O-])c4)C3)n2)o1` (stereo not drawn) showed an MIC in [2] of over 16 µM. The same compound registered a solubility in [5] of under 100 µM.

In [2], `O=[N+]([O-])c1cccc(-c2ccc(-c3cnnc(N4CCC(c5cccc(Cl)c5)C4)n3)cc2)c1` (stereo not drawn) displayed an MIC of over 128 µM. Moreover, the inhibition entry in series [3] is “inactive”.

In turn, `O=[N+]([O-])c1cccc(-c2ccc(-c3cnnc(N4CCC(c5cccc(Cl)c5)C4)n3)o2)c1` (stereo not drawn) had an MIC in series [2] of over 16 µM. In addition, the solubility in series [5] is under 100 µM.

The compound `Clc1cccc(C2CCN(c3nncc(-c4ccc(Br)cc4)n3)C2)c1` (stereo not drawn) came in with an MIC in [2] of 30.7 µM (≈ 12.8 µg/mL). The pIC50 in [4] is 4.48. The compound further had an inhibition in [3] of 53%.

For the compound `Clc1cccc(C2CCN(c3nncc(-c4ccc5c(c4)OCO5)n3)C2)c1` (stereo not drawn), the MIC in series [2] was over 16 µM. The solubility in series [5] is under 100 µM.

Compound `Cc1ccc(-c2cnnc(N3CCC(c4cccc(OCc5ccccc5)c4)C3)n2)o1` (stereo not drawn) had a pIC50 in series [4] of 4.20. Besides, in series [3], the inhibition was 73.2%.

On to `Nc1ccc(-c2cnnc(N3CCC(c4cccc(Cl)c4)C3)n2)cc1` (stereo not drawn), for which the MIC in series [2] was 5.7 µM (≈ 2.01 µg/mL); in the series on Bacillus anthracis it was 16 µM (≈ 5.63 µg/mL). For the same compound, the MBC in the series with Bacillus anthracis amounted to 128 µM (≈ 45 µg/mL). The Activity entry (in series [1]; with HeLa) was “Non-toxic” in each case.

With `CO[C@H]1/C=C/O[C@@]2(C)Oc3c(C)c(O)c4c(O)c(c(/C=N/N5CCN(C)CC5)c(O)c4c3C2=O)NC(=O)/C(C)=C\C=C\[C@H](C)[C@H](O)[C@@H](C)[C@@H](O)[C@@H](C)[C@H](OC(C)=O)[C@@H]1C` [RIFAMPIN], in series [2], the MIC came to 0.08 µM (≈ 0.0658 µg/mL).

Regarding `Cc1ccc(-c2cnnc(N3CCC(c4cccc(C(F)(F)F)c4)C3)n2)o1` (stereo not drawn), the MIC in series [2] amounted to 52.4 µM (≈ 19.6 µg/mL). Besides, the pIC50 in series [4] is 3.45. The compound also yielded an inhibition in series [3] of 37.8%.

The values are drawn from ChEMBL document CHEMBL3098072 (Bioorg Med Chem, 2014).
